Measured values reported in publication PMC9575645 (Signal Transduction and Targeted Therapy, 2022).
Read-outs that look alike come from different tables or passages of the source.

Experiments:
palmitic and oleic acids = test: LC-MS quantification of palmitic and oleic acids in IAV-infected A549 cells; assay type: cell-based, human; settings: 20 μM
Description: The difference in saturated and unsaturated FFAs between the untreated and the treated cells after infection with IAV or SARS-CoV-2 was determined by GC-FID and LC-MS as previously reported,[11] and detailed procedures are described in Supplementary Information.
The amount of palmitic and oleic acids in the untreated and treated cells after infection with IAV was determined by LC-MS. In brief, A549 cells infected with IAV PR8 strain at an MOI of 0.1 were vehicle-treated, or treated with 20 μM atglistatin or CAY10499 at 12 hpi, or treated with 20 μM atglistatin or CAY10499 and then supplemented individually with 100 μM of PA or OA at 12 hpi, and incubated further for 12 h. Afterward, cells were collected for FFA extraction. 700 μL Chloroform : Methanol (2:1) was added to the freeze cell pellets and vortexed for 1 min. The mixture was sonicated for 5 min and re-vortexed for 1 min. The mixture was centrifuged at 13,000 rpm for 8 min, and the lower organic layer was collected and transferred into a micro-tube. Using vacuum concentrator, the extracts were dried. Finally, the extracts were re-dissolved by methanol and centrifuged at 13,000 rpm for 5 min. The supernatants were transferred into LC-MS vials. […] The standard compounds as well as extracted samples were analyzed in selective ion monitoring (SIM) mode using the ESI source by monitoring the H^- adducts ions. […]

SARS-CoV-2 KCDC03 strain = assay type: in vivo, Syrian hamsters
[1] = In vivo toxicity in hamsters (body weight, gross and histopathological organ changes)
Description: Three groups of 3 hamsters were treated intraperitoneally with 20, 40, and 80 mg kg^-1 d^-1 of atglistatin prepared in a 100 μL vehicle [50% PEG400 in water (vol/vol)] Bid with a 12 h interval for four and a half consecutive days, respectively (Table S10). One group of 3 control anesthetized hamsters was administered intraperitoneally with 100 μL vehicle Bid with a 12 h interval for four and a half consecutive days (Table S10).
Histopathological changes in lungs, liver, kidney, heart, and spleen from the experimental mice or hamsters in each experimental group were determined as described elsewhere.^35 Briefly, each sample from the mice or hamsters in each experimental group was fixed in sufficient 10% neutral formalin at 20°C for 3-4 days, washed in tap water, then trimmed, and thereafter processed in the automatic embedding machine for the dehydration and paraffin embedment. Tissue sections, prepared on slides at a thickness of 3 μm by a microtome, were used for hematoxylin and eosin (H&E) staining or IHC as described below. H&E stained sections were observed under light microscopy. The morphological changes to lung, liver, kidney, heart, and spleen tissues were reviewed in a blinded manner as previous described.^35

[2] = mouse, in vivo, ip

Compound: CN(C)C(=O)Nc1cccc(-c2ccc(N(C)C)cc2)c1 [Atglistatin]
- levels of PA and OA (LC-MS) (palmitic and oleic acids): significantly reduced
- gross lung lesions (SARS-CoV-2 KCDC03 strain; […], different concentrations (20, 40, 80 mg kg^-1 d^-1)): improved gross lung lesions in a dose-dependent manner
- FFA and glycerol release from LDs in lungs (SARS-CoV-2 KCDC03 strain; hamster, in vivo): inhibition of FFA and glycerol release
- IFN-α and IFN-β production (SARS-CoV-2 KCDC03 strain; hamster, in vivo): no effect
- levels of TNF-α, IL-6, and MCP-1 (SARS-CoV-2 KCDC03 strain; hamster, in vivo): reduced
- reduction in lung lesions (SARS-CoV-2 KCDC03 strain; hamster, in vivo): 72%
- toxicity, including body weight loss ([1]; 80 mg kg^-1 d^-1 atglistatin and 2.5 mg kg^-1 d^-1 remdesivir, singly or in combination): no toxicity
- gross and histopathological changes in major organs (liver, lung, kidney, heart, spleen) ([1]; 20, 40, or 80 mg kg^-1 d^-1 Bid for 4.5 consecutive days): no gross and histopathological changes
- overt signs of toxicity, including loss of body weight ([1]; intraperitoneal 80 mg kg^-1 d^-1): did not induce any overt signs of toxicity

Compound: COc1nn(-c2ccc(NC(=O)OCc3ccccc3)c(C)c2)c(=O)o1 [CAY10499]
- overt signs of toxicity, including loss of body weight [2]: did not induce any overt signs of toxicity
- levels of PA and OA (LC-MS) (palmitic and oleic acids): significantly reduced
